The test system of the experiment is B6C3F1 mice, colon carcinoma 38 s.c., T/C. In words: NCI In Vivo Anticancer Drug Screen. Data for tumor model Colon Carcinoma 38 (subcutaneous) in B6C3F1 mice. The conditions noted are these: endpoint: median tumor weight (est.), higher = larger tumour. The procedure: The antitumor activity of compounds was measured in mice bearing transplantable tumors. Survival or tumor size were measured and the results are expressed as the measurement made in the treated group (T) divided by the measurement made in the vehicle treated control group (C). The tumor model used in this assay is Colon Carcinoma 38 (subcutaneous) in B6C3F1 mice

Where [1] appears, read: dose: 50.0 mg/kg/injection, schedule: Q07DX002 (ip), vehicle: Klucel (hydroxypropylcellulose) (HPC).
The mark [2] stands for this setting: dose: 100.0 mg/kg/injection, schedule: Q07DX002 (ip), vehicle: Klucel (hydroxypropylcellulose) (HPC).
The mark [3] stands for this setting: dose: 200.0 mg/kg/injection, schedule: Q07DX002 (ip), vehicle: Klucel (hydroxypropylcellulose) (HPC).
Where [4] appears, read: dose: 400.0 mg/kg/injection, schedule: Q07DX002 (ip), vehicle: Klucel (hydroxypropylcellulose) (HPC).
[5] abbreviates: dose: 4.0 mg/kg/injection, schedule: Q07DX002 (ip), vehicle: saline.
Where [6] appears, read: dose: 100.0 mg/kg/injection, schedule: Q07DX002 (ip), vehicle: saline.
Where [7] appears, read: dose: 25.0 mg/kg/injection, schedule: Q07DX002 (ip), vehicle: saline with Tween-80.
Where [8] appears, read: dose: 50.0 mg/kg/injection, schedule: Q07DX002 (ip), vehicle: saline with Tween-80.
The mark [9] stands for this setting: dose: 100.0 mg/kg/injection, schedule: Q07DX002 (ip), vehicle: saline with Tween-80.
Where [10] appears, read: dose: 50.0 mg/kg/injection, schedule: Q07DX002 (ip), vehicle: saline.

The structures appear in SMILES notation. Values joined by “and” are separate entries in the source; they are usually repeats but may differ in a detail not shown here. Identical values can stand only once. Results filed as inconclusive are left out.

In PubChem BioAssay AID214 (DTP/NCI, 2004) one finds T/C data, which are given here for 23 molecules.

As to `Cc1cc(Nc2ccc3c(c2)OCO3)c2cc3c(cc2n1)OCO3`, the T/C is, setting by setting: under setting [1], 78 % of control and 103 % of control; under setting [2], 96 % of control and 113 % of control and 115 % of control.

With `NC1(C(=O)O)CCCC1`, the T/C (dose: 50.0 mg/kg/injection, schedule: Q07DX003 (ip), vehicle: saline) was 69 % of control; the T/C (dose: 100.0 mg/kg/injection, schedule: Q07DX003 (ip), vehicle: saline) was 81 % of control; the T/C (dose: 200.0 mg/kg/injection, schedule: Q07DX003 (ip), vehicle: saline) was 39 % of control.

In the case of `Cc1c(-c2ccc(-c3ccccc3F)cc2)nc2ccc(F)cc2c1C(=O)O`, the T/C reads like this: (dose: 3.6 mg/kg/injection, schedule: Q01DX008 (ip), vehicle: water) 45 % of control; (dose: 6.0 mg/kg/injection, schedule: Q01DX008 (ip), vehicle: water) 53 % of control; (dose: 10.0 mg/kg/injection, schedule: Q01DX008 (ip), vehicle: water) 43 % of control; (dose: 16.6 mg/kg/injection, schedule: Q01DX008 (ip), vehicle: water) 26 % of control; (dose: 27.7 mg/kg/injection, schedule: Q01DX008 (ip), vehicle: water) 23 % of control.

For the molecule `Cn1cc(C2NC(=O)c3ccccc3N2)c2ccccc21` (centres undefined), the T/C under setting [1] was 46 % of control; the T/C under setting [2] was 244 % of control; the T/C under setting [3] is 42 % of control and 63 % of control; the T/C under setting [4] is 151 % of control; the T/C (dose: 1600.0 mg/kg/injection, schedule: Q07DX002 (ip), vehicle: Klucel (hydroxypropylcellulose) (HPC)) is 96 % of control.

On to `O=C1N[C@H]2[C@H](O)[C@H](O)[C@@H](O)[C@H](O)[C@@H]2c2cc3c(c(O)c21)OCO3`, for which the T/C runs as follows: (dose: 0.88 mg/kg/injection, schedule: Q01DX008 (ip), vehicle: saline + alcohol) 113 % of control; (dose: 1.75 mg/kg/injection, schedule: Q01DX008 (ip), vehicle: saline + alcohol) 105 % of control; (dose: 3.5 mg/kg/injection, schedule: Q01DX008 (ip), vehicle: saline + alcohol) 88 % of control.

As for `CC1CCC(NC(=O)N(CCCl)N=O)CC1` (centres undefined), the T/C runs as follows: (dose: 4.0 mg/kg/injection, schedule: Q07DX002 (ip), vehicle: Klucel (hydroxypropylcellulose) (HPC)) 101 % of control; (dose: 8.0 mg/kg/injection, schedule: Q07DX002 (ip), vehicle: Klucel (hydroxypropylcellulose) (HPC)) 69 % of control; (dose: 16.0 mg/kg/injection, schedule: Q07DX002 (ip), vehicle: Klucel (hydroxypropylcellulose) (HPC)) 34 % of control; (dose: 32.0 mg/kg/injection, schedule: Q07DX002 (ip), vehicle: Klucel (hydroxypropylcellulose) (HPC)) 17 % of control.

For the molecule `OC(C1CO1)C(O)C1CO1` (centres undefined), the T/C reads like this: (dose: 2.0 mg/kg/injection, schedule: Q07DX002 (ip), vehicle: saline) 117 % of control; under setting [5], 107 % of control; (dose: 8.0 mg/kg/injection, schedule: Q07DX002 (ip), vehicle: saline) 57 % of control.

On to `COc1cccc(-c2cc(=O)c3cccc(CC(=O)O)c3o2)c1`, for which the T/C under setting [6] is 3 % of control.

In the case of `Cc1cn(C2CC(F)C(CO)O2)c(=O)[nH]c1=O` (centres undefined), the T/C (dose: 1800.0 mg/kg/injection, schedule: Q07DX002 (ip), vehicle: saline) was 103 % of control.

For the molecule `CCC(NC(N)=O)C(CC)NC(N)=O` (centres undefined), the T/C under setting [7] is 83 % of control, the T/C under setting [8] was 88 % of control and the T/C under setting [9] is 81 % of control.

On to `CCCCCC1c2cc(O)ccc2OC1N1CCOCC1` (centres undefined), for which the T/C runs as follows: under setting [7], 103 % of control; under setting [8], 74 % of control; under setting [9], 92 % of control; (dose: 400.0 mg/kg/injection, schedule: Q07DX002 (ip), vehicle: saline with Tween-80) 81 % of control.

Turning to `CS(=O)(=O)OCCCCOS(C)(=O)=O`, the T/C (dose: 50.0 mg/kg/injection, schedule: Q01DX006 (ip), vehicle: saline with Tween-80) is 16 % of control.

On to `C#CCNC1=C(C)C(=O)C2=C(C1=O)[C@H](COC(N)=O)[C@]1(OC)[C@@H]3N[C@@H]3CN21`, for which the T/C runs as follows: (dose: 1.5 mg/kg/injection, schedule: Q07DX002 (ip), vehicle: distilled water + Tween-80) 50 % of control; (dose: 3.0 mg/kg/injection, schedule: Q07DX002 (ip), vehicle: distilled water + Tween-80) 60 % of control; (dose: 6.0 mg/kg/injection, schedule: Q07DX002 (ip), vehicle: distilled water + Tween-80) 36 % of control; (dose: 12.0 mg/kg/injection, schedule: Q07DX002 (ip), vehicle: distilled water + Tween-80) 9 % of control.

`Nc1ccn(C2OC(CO)C(O)C2O)c(=O)n1` (centres undefined): the T/C runs as follows: (dose: 300.0 mg/kg/injection, schedule: Q07DX002 (ip), vehicle: saline) 70 % of control; (dose: 600.0 mg/kg/injection, schedule: Q07DX002 (ip), vehicle: saline) 90 % of control; (dose: 1200.0 mg/kg/injection, schedule: Q07DX002 (ip), vehicle: saline) 56 % of control; (dose: 2400.0 mg/kg/injection, schedule: Q07DX002 (ip), vehicle: saline) 64 % of control.

As for `O=C(O)C1CC(O)CN1` (centres undefined), the T/C under setting [10] was 93 % of control; the T/C under setting [6] was 87 % of control; the T/C (dose: 400.0 mg/kg/injection, schedule: Q07DX002 (ip), vehicle: saline) is 79 % of control.

Consider `CCOC(=O)C(N)C[S][Sn]([CH3])([CH3])[Cl]` (centres undefined), for which the T/C reads like this: (dose: 6.25 mg/kg/injection, schedule: Q07DX002 (ip), vehicle: saline) 123 % of control; (dose: 12.5 mg/kg/injection, schedule: Q07DX002 (ip), vehicle: saline) 61 % of control; (dose: 25.0 mg/kg/injection, schedule: Q07DX002 (ip), vehicle: saline) 90 % of control; under setting [10], 110 % of control.

Turning to `CCOC(=O)c1c[nH]c2oc(/C=N/N3CC(CN4CCOCC4)OC3=O)cc2c1=O` (centres undefined), the T/C (dose: 150.0 mg/kg/injection, schedule: Q07DX002 (ip), vehicle: other) was 83 % of control; the T/C (dose: 300.0 mg/kg/injection, schedule: Q07DX002 (ip), vehicle: other) is 56 % of control; the T/C (dose: 600.0 mg/kg/injection, schedule: Q07DX002 (ip), vehicle: other) is 29 % of control.

As for `COc1ccccc1CC(=O)O`, the T/C is 78 % of control (dose: 75.0 mg/kg/injection, schedule: Q07DX002 (ip), vehicle: saline with Tween-80); 107 % of control (dose: 150.0 mg/kg/injection, schedule: Q07DX002 (ip), vehicle: saline with Tween-80); 98 % of control (dose: 300.0 mg/kg/injection, schedule: Q07DX002 (ip), vehicle: saline with Tween-80).

Consider `O=C(CCBr)N1CCN(C(=O)CCBr)CC1`, for which the T/C by setting is: (dose: 40.0 mg/kg/injection, schedule: Q07DX002 (ip), vehicle: saline with Tween-80) 81 % of control; (dose: 80.0 mg/kg/injection, schedule: Q07DX002 (ip), vehicle: saline with Tween-80) 20 % of control and 33 % of control; (dose: 320.0 mg/kg/injection, schedule: Q07DX002 (ip), vehicle: saline with Tween-80) 6 % of control.

As for `ClCc1ccc2ccccc2n1`, the T/C under setting [8] is 93 % of control; the T/C under setting [9] is 86 % of control; the T/C (dose: 200.0 mg/kg/injection, schedule: Q07DX002 (ip), vehicle: saline with Tween-80) was 89 % of control.

With `CO[C@@]12[C@H](COC(N)=O)C3=C(C(=O)C(C)=C(N)C3=O)N1C[C@@H]1N[C@@H]12`, the T/C reads like this: (dose: 0.5 mg/kg/injection, schedule: Q07DX002 (ip), vehicle: saline) 77 % of control; under setting [5], 18 % of control and 19 % of control.

For the molecule `COc1nc(C(Cl)(Cl)Cl)c(Cl)c(OC)c1Cl`, the T/C was 103 % of control under setting [1], 109 % of control under setting [2], 104 % of control under setting [3] and 47 % of control under setting [4].

`CCC1=C2C(=O)c3ccccc3C2=C(C)S(=O)(=O)O1`: the T/C (dose: 6.25 mg/kg/injection, schedule: Q07DX002 (ip), vehicle: saline with Tween-80) was 153 % of control.
